Measurements: the supplement of paper PMC10307832

What was measured:
Experiment in all cases: relative viability (nuclei count vs DMSO), 5 days (fraction); higher = more cells survive
[1] = compound: O[C@@H](COc1cccc2ncccc12)CN1CCN([C@@H]2c3ccccc3[C@@H]3[C@H](c4ccccc42)C3(F)F)CC1 [Zosuquidar] + Cc1cc(Nc2cc(N3CCN(C)CC3)nc(Sc3ccc(NC(=O)C4CC4)cc3)n2)n[nH]1 [Tozasertib] (partner 0.1 µM)
Method in brief: (§1)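 Lung cancer cell lines in 1536-well plates got either a single drug or a fixed anchor-drug dose together with five library-drug doses (not always all listed) in √10 steps, by pin tool, on the day after seeding. Nuclei were counted after 5 days, and relative viability is the treated-to-vehicle ratio of nuclei counts. Values are medians of duplicate plates.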

[2] = compound: C1=CC(=CC=C1NC(=S)NNC2=C(C=C(C=C2[N+](=O)[O-])C(F)(F)F)[N+](=O)[O-])F [Kobe2602] + C[C@]1(O)C[C@@H](c2nc(-c3ccc4ccc(-c5ccccc5)nc4c3)c3c(N)nccn32)C1 [Linsitinib] (partner 1 µM)
Method in brief: as §1

[3] = compound: O[C@@H](COc1cccc2ncccc12)CN1CCN([C@@H]2c3ccccc3[C@@H]3[C@H](c4ccccc42)C3(F)F)CC1 [Zosuquidar] + C[C@]1(O)C[C@@H](c2nc(-c3ccc4ccc(-c5ccccc5)nc4c3)c3c(N)nccn32)C1 [Linsitinib] (partner 1 µM)
Method in brief: as §1

[4] = compound: C1=CC(=CC=C1NC(=S)NNC2=C(C=C(C=C2[N+](=O)[O-])C(F)(F)F)[N+](=O)[O-])F [Kobe2602] + COc1cc2c(Oc3ccc(NC(=O)C4(C(=O)Nc5ccc(F)cc5)CC4)cc3F)ccnc2cc1OCCCN1CCOCC1 [Foretinib] (partner 0.25 µM)
Method in brief: as §1

Cell Line	relative viability ([1]; first compound 0.01 µM)	relative viability ([1]; first compound 0.03162 µM)	relative viability ([1]; first compound 0.1 µM)	relative viability ([1]; first compound 0.3162 µM)	relative viability ([1]; first compound 1 µM)	relative viability ([2]; first compound 0.2 µM)	relative viability ([2]; first compound 0.6325 µM)	relative viability ([2]; first compound 2 µM)	relative viability ([2]; first compound 6.325 µM)	relative viability ([2]; first compound 20 µM)	relative viability ([3]; first compound 0.01 µM)	relative viability ([3]; first compound 0.03162 µM)	relative viability ([3]; first compound 0.1 µM)	relative viability ([3]; first compound 0.3162 µM)	relative viability ([3]; first compound 1 µM)	relative viability ([4]; first compound 0.2 µM)	relative viability ([4]; first compound 0.6325 µM)	relative viability ([4]; first compound 2 µM)	relative viability ([4]; first compound 6.325 µM)	relative viability ([4]; first compound 20 µM)
LC-2-ad	0.461	0.491	0.51	0.522	0.463	0.849	0.833	0.774	0.867	0.865	0.776	0.857	0.873	0.797	0.895	0.94	0.946	0.932	1.03	0.996
LCLC-97TM1	0.202	0.266	0.167	0.208	0.212	0.221	0.179	0.159	0.196	0.202	0.204	0.177	–	0.174	0.171	0.834	0.928	1.01	0.956	0.924
LCLC-103H	0.388	0.462	0.445	0.462	0.496	1.05	1.1	1.1	1.09	0.984	1.13	1.17	1.05	0.912	1.03	0.82	0.905	0.751	0.832	0.723
LK-2	0.171	0.163	0.174	0.172	0.183	0.618	0.614	0.415	0.643	0.567	0.663	0.745	0.515	0.722	0.574	1.48	1.74	1.28	1.14	1.41
LOU-NH91	0.697	0.624	–	0.706	0.71	0.997	0.983	1	0.922	0.965	0.937	0.927	0.736	1.03	0.913	0.95	0.964	0.954	0.9	0.92
LU99A	0.215	0.229	0.257	0.254	0.271	0.538	0.53	0.471	0.585	0.631	0.5	0.54	0.483	0.539	0.659	0.803	0.874	0.806	0.822	0.769
LXF-289	0.244	0.2	0.179	0.222	0.187	0.944	0.985	0.941	0.952	0.919	0.888	1	0.94	0.981	1.03	0.959	0.943	0.984	0.941	1.01
NCI-H23	0.393	0.629	0.537	0.34	0.362	0.528	0.706	0.477	0.652	0.525	0.601	0.449	0.483	0.504	0.675	1.02	0.977	0.896	1.12	1
NCI-H322M	0.461	0.54	0.383	0.445	0.519	0.88	1.01	0.883	1	0.921	0.917	0.859	0.729	0.851	0.922	0.971	0.98	0.923	0.959	0.963
NCI-H358	0.109	0.12	0.093	0.1	0.0956	0.684	0.77	0.771	0.758	0.732	0.768	0.726	0.715	0.735	0.75	0.721	0.756	0.605	0.698	0.845
NCI-H441	0.475	0.723	0.819	0.709	0.609	0.612	0.746	0.48	0.557	0.623	0.505	0.594	0.498	–	0.478	0.884	0.901	0.978	1.02	0.914
NCI-H460	0.335	0.474	0.671	0.476	0.323	0.826	0.768	0.709	0.894	0.725	0.764	0.802	0.711	0.759	0.768	1.07	1	0.978	1.02	0.999
NCI-H520	0.413	0.441	–	0.392	0.416	0.997	1.04	1.02	0.984	0.968	0.984	0.945	0.888	0.946	1.08	0.701	0.846	0.738	0.708	0.892
NCI-H596	0.877	–	0.986	1.16	0.905	1.15	1.19	1.09	1.06	0.986	1.03	1.09	1.03	1.05	1.03	0.851	0.708	0.957	0.915	0.846
NCI-H647	0.26	0.266	0.564	0.228	0.284	1.12	1.45	1.25	0.864	1.19	1.16	1.19	1.3	1.28	1.24	1.13	1.29	1.16	1.17	1.12
NCI-H650	0.795	0.748	0.739	0.803	0.791	0.758	1.03	0.912	0.897	0.954	0.886	0.629	–	0.965	0.921	1.1	1.01	1.05	1.05	0.907

Cell Line	relative viability ([1]; first compound 0.01 µM)	relative viability ([1]; first compound 0.03162 µM)	relative viability ([1]; first compound 0.1 µM)	relative viability ([1]; first compound 0.3162 µM)	relative viability ([1]; first compound 1 µM)	relative viability ([2]; first compound 0.2 µM)	relative viability ([2]; first compound 0.6325 µM)	relative viability ([2]; first compound 2 µM)	relative viability ([2]; first compound 6.325 µM)	relative viability ([2]; first compound 20 µM)	relative viability ([3]; first compound 0.01 µM)	relative viability ([3]; first compound 0.03162 µM)	relative viability ([3]; first compound 0.1 µM)	relative viability ([3]; first compound 0.3162 µM)	relative viability ([3]; first compound 1 µM)	relative viability ([4]; first compound 0.2 µM)	relative viability ([4]; first compound 0.6325 µM)	relative viability ([4]; first compound 2 µM)	relative viability ([4]; first compound 6.325 µM)	relative viability ([4]; first compound 20 µM)
NCI-H661	0.354	0.313	0.353	0.328	0.33	0.53	0.559	0.629	0.539	0.581	0.614	0.653	0.447	0.704	0.69	0.869	1.01	0.99	1.02	1.03
NCI-H727	0.675	0.484	0.45	0.439	0.401	0.306	0.319	0.253	0.239	0.324	0.328	0.343	0.335	0.237	0.274	0.855	0.991	0.919	1.1	0.873
NCI-H838	0.264	0.316	0.273	0.291	0.285	0.91	1.12	0.88	0.992	1.07	1.01	0.981	1.02	1.09	1.06	0.934	1.13	0.93	0.971	1.03
NCI-H1355	0.527	0.542	0.623	0.612	0.519	0.784	0.782	0.749	0.769	0.787	0.864	0.798	0.641	0.87	0.887	0.953	0.945	0.921	0.933	0.95
NCI-H1395	0.729	0.893	0.804	0.81	0.755	0.992	1	1.04	1.05	1.12	1.39	1.17	0.796	1.04	1.1	0.935	0.976	0.976	0.991	1.12
NCI-H1437	0.41	0.408	0.424	0.396	0.381	0.974	0.995	1.03	0.998	0.872	1.06	1.01	0.936	1.08	1.05	1.28	1.28	1.15	1.23	1.09
NCI-H1651	0.603	0.607	0.782	0.627	0.623	0.83	1.14	1.07	0.976	0.906	0.937	1.01	0.895	0.939	0.953	0.764	0.89	0.762	0.776	0.868
NCI-H1666	0.596	0.62	0.666	0.587	0.592	0.683	0.76	–	0.713	0.76	0.759	0.832	0.768	0.817	0.78	0.961	0.952	0.973	0.963	1.04
NCI-H1734	0.263	0.254	0.243	0.268	0.263	0.895	0.899	0.849	0.964	0.897	0.894	0.97	0.816	0.963	0.949	0.843	0.938	0.978	0.901	0.855
NCI-H1755	0.541	0.634	0.535	0.634	0.564	0.949	0.898	0.986	0.977	0.982	0.948	0.977	0.958	1.01	0.965	0.948	0.914	0.915	0.879	0.868
NCI-H1793	0.345	0.534	–	0.393	0.376	0.856	0.883	0.806	0.831	0.958	0.748	0.934	–	0.797	0.73	0.847	0.803	0.684	0.728	0.863
NCI-H1915	0.406	0.453	0.447	0.461	0.405	1.08	1.12	1.08	1.08	1.1	1.14	1.07	1.09	1.12	1.1	1.11	1.09	1.08	1.02	1.06
NCI-H1944	0.244	0.24	0.254	0.243	0.248	1.22	1.26	1.28	1.17	1.29	1.21	1.17	1.08	1.09	1.17	0.891	0.91	0.847	0.885	0.976
NCI-H1975	0.74	0.775	1.01	0.803	0.787	0.969	0.917	0.978	0.859	0.818	0.928	0.905	1.07	1.01	1.02	0.99	0.915	0.788	0.823	0.931
NCI-H1993	0.564	0.5	0.578	0.595	0.541	0.725	0.826	0.753	0.698	0.783	0.707	0.783	0.698	0.695	0.706	0.789	0.748	0.689	0.687	0.642
NCI-H2009	0.538	0.518	0.574	0.46	0.436	1.13	1.2	1.1	1.19	1.15	1.22	1.25	1.15	1.16	1.2	1.15	1.32	1.21	1.19	1.19
